Consider seven compounds from PubChem BioAssay AID248 (DTP/NCI, 2004).

Values joined by “and” are separate entries in the source; they are usually repeats but may differ in a detail not shown here. Equal values may be shown once. Toxic doses and inconclusive results are not listed.

This assay has as its system L1210 leukemia ip in BDF1 mice, survival T/C. Description: NCI In Vivo Anticancer Drug Screen. Data for tumor model L1210 Leukemia (intraperitoneal) in B6D2F1 (BDF1) mice. The conditions noted are these: higher = longer survival. A digest of the protocol: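 Tumor was transplanted into mice, which were then dosed with test compound or vehicle alone. Survival was recorded for each group, and the treated figure was expressed relative to the control figure.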

Setting [1] is: endpoint: mean survival time, dose: 400.0 mg/kg/injection, schedule: Q01DX009 (ip), vehicle: Klucel (hydroxypropylcellulose) (HPC).
Setting [2] is: endpoint: mean survival time, dose: 25.0 mg/kg/injection, schedule: Q04DX003 (ip), vehicle: Klucel (hydroxypropylcellulose) (HPC).

For `NCCc1ccc(O)c(O)c1`, the T/C was 101 % of control (endpoint: mean survival time, dose: 6.25 mg/kg/injection, schedule: Q03HX024 (ip), vehicle: saline); 113 % of control (endpoint: mean survival time, dose: 12.5 mg/kg/injection, schedule: Q03HX004 (ip), vehicle: saline); 87 % of control (endpoint: mean survival time, dose: 12.5 mg/kg/injection, schedule: Q03HX024 (ip), vehicle: saline); 104 % of control (endpoint: mean survival time, dose: 25.0 mg/kg/injection, schedule: Q01DX001 (ip), vehicle: saline); 105 % of control (endpoint: mean survival time, dose: 25.0 mg/kg/injection, schedule: Q01DX009 (ip), vehicle: Klucel (hydroxypropylcellulose) (HPC)); 113 % of control (endpoint: mean survival time, dose: 25.0 mg/kg/injection, schedule: Q03HX004 (ip), vehicle: saline). Also, the T/C runs as follows: (endpoint: mean survival time, dose: 25.0 mg/kg/injection, schedule: Q03HX024 (ip), vehicle: saline) 106 % of control; (endpoint: mean survival time, dose: 25.0 mg/kg/injection, schedule: Q04DX003 (ip), vehicle: saline) 94 % of control; (endpoint: mean survival time, dose: 50.0 mg/kg/injection, schedule: Q01DX001 (ip), vehicle: saline) 100 % of control; (endpoint: mean survival time, dose: 50.0 mg/kg/injection, schedule: Q01DX009 (ip), vehicle: Klucel (hydroxypropylcellulose) (HPC)) 114 % of control; (endpoint: mean survival time, dose: 50.0 mg/kg/injection, schedule: Q01DX009 (ip), vehicle: saline) 118 % of control and 119 % of control; (endpoint: mean survival time, dose: 50.0 mg/kg/injection, schedule: Q03HX004 (ip), vehicle: saline) 124 % of control. In addition, the T/C reads like this: (endpoint: mean survival time, dose: 50.0 mg/kg/injection, schedule: Q03HX024 (ip), vehicle: saline) 115 % of control; (endpoint: mean survival time, dose: 50.0 mg/kg/injection, schedule: Q04DX003 (ip), vehicle: saline) 94 % of control; (endpoint: mean survival time, dose: 100.0 mg/kg/injection, schedule: Q01DX001 (ip), vehicle: saline) 108 % of control; (endpoint: mean survival time, dose: 100.0 mg/kg/injection, schedule: Q03HX024 (ip), vehicle: saline) 115 % of control; (endpoint: mean survival time, dose: 100.0 mg/kg/injection, schedule: Q04DX003 (ip), vehicle: saline) 97 % of control; (endpoint: mean survival time, dose: 150.0 mg/kg/injection, schedule: Q01DX009 (ip), vehicle: saline) 104 % of control. The T/C is, setting by setting: (endpoint: mean survival time, dose: 200.0 mg/kg/injection, schedule: Q01DX001 (ip), vehicle: saline) 99 % of control; (endpoint: mean survival time, dose: 200.0 mg/kg/injection, schedule: Q04DX003 (ip), vehicle: saline) 101 % of control; (endpoint: mean survival time, dose: 400.0 mg/kg/injection, schedule: Q01DX001 (ip), vehicle: saline) 115 % of control; under setting [1], 152 % of control; (endpoint: mean survival time, dose: 400.0 mg/kg/injection, schedule: Q01DX009 (ip), vehicle: saline) 123 % of control; (endpoint: mean survival time, dose: 400.0 mg/kg/injection, schedule: Q04DX003 (ip), vehicle: saline) 94 % of control. The T/C by setting is: (endpoint: mean survival time, dose: 600.0 mg/kg/injection, schedule: Q01DX009 (ip), vehicle: saline) 103 % of control; (endpoint: mean survival time, dose: 800.0 mg/kg/injection, schedule: Q01DX009 (ip), vehicle: saline) 122 % of control; (endpoint: mean survival time, dose: 800.0 mg/kg/injection, schedule: Q04HX003 (ip), vehicle: saline) 108 % of control; (endpoint: mean survival time, dose: 1600.0 mg/kg/injection, schedule: Q04HX003 (ip), vehicle: saline) 104 % of control; (endpoint: median survival time, dose: 20.0 mg/kg/injection, schedule: Q04HX036 (ip), vehicle: saline) 92 % of control; (endpoint: median survival time, dose: 40.0 mg/kg/injection, schedule: Q01DX009 (sc), vehicle: saline) 98 % of control. Further, the T/C reads like this: (endpoint: median survival time, dose: 40.0 mg/kg/injection, schedule: Q04HX020 (ip), vehicle: saline) 114 % of control; (endpoint: median survival time, dose: 40.0 mg/kg/injection, schedule: Q04HX036 (ip), vehicle: saline) 106 % of control; (endpoint: median survival time, dose: 40.0 mg/kg/injection, schedule: Q11DX017 (ip), vehicle: saline) 104 % of control; (endpoint: median survival time, dose: 40.0 mg/kg/injection, schedule: Q12HX018 (ip), vehicle: saline) 114 % of control; (endpoint: median survival time, dose: 80.0 mg/kg/injection, schedule: Q01DX009 (ip), vehicle: saline) 118 % of control; (endpoint: median survival time, dose: 80.0 mg/kg/injection, schedule: Q01DX009 (oral), vehicle: saline) 97 % of control. Besides, the T/C by setting is: (endpoint: median survival time, dose: 80.0 mg/kg/injection, schedule: Q01DX009 (sc), vehicle: saline) 104 % of control; (endpoint: median survival time, dose: 80.0 mg/kg/injection, schedule: Q02DX005 (ip), vehicle: saline) 111 % of control; (endpoint: median survival time, dose: 80.0 mg/kg/injection, schedule: Q04HX020 (ip), vehicle: saline) 123 % of control; (endpoint: median survival time, dose: 80.0 mg/kg/injection, schedule: Q04HX036 (ip), vehicle: saline) 122 % of control; (endpoint: median survival time, dose: 80.0 mg/kg/injection, schedule: Q11DX017 (ip), vehicle: saline) 120 % of control; (endpoint: median survival time, dose: 80.0 mg/kg/injection, schedule: Q12HX010 (ip), vehicle: saline) 121 % of control. Moreover, the T/C is 104 % of control (endpoint: median survival time, dose: 160.0 mg/kg/injection, schedule: Q01DX009 (oral), vehicle: saline); 96 % of control (endpoint: median survival time, dose: 160.0 mg/kg/injection, schedule: Q01DX009 (sc), vehicle: saline); 108 % of control (endpoint: median survival time, dose: 160.0 mg/kg/injection, schedule: Q04HX036 (ip), vehicle: saline); 105 % of control (endpoint: median survival time, dose: 320.0 mg/kg/injection, schedule: Q01DX009 (oral), vehicle: saline); 103 % of control (endpoint: median survival time, dose: 320.0 mg/kg/injection, schedule: Q01DX009 (sc), vehicle: saline); 122 % of control (endpoint: median survival time, dose: 320.0 mg/kg/injection, schedule: Q02DX005 (ip), vehicle: saline). The T/C by setting is: (endpoint: median survival time, dose: 640.0 mg/kg/injection, schedule: Q01DX009 (oral), vehicle: saline) 106 % of control; (endpoint: median survival time, dose: 640.0 mg/kg/injection, schedule: Q01DX009 (sc), vehicle: saline) 103 % of control; (endpoint: median survival time, dose: 640.0 mg/kg/injection, schedule: Q02DX005 (ip), vehicle: saline) 124 % of control.
`CC(C)(C)C1COP(=O)(C(C)(C)C)OC1` (stereo unspecified): the T/C is 94 % of control (endpoint: mean survival time, dose: 12.5 mg/kg/injection, schedule: Q04DX003 (ip), vehicle: Klucel (hydroxypropylcellulose) (HPC)) and 96 % of control under setting [2].
`c1ccc(C(C2CCCCC2)(C2CCCCC2)C(c2ccccc2)(C2CCCCC2)C2CCCCC2)cc1`: the T/C was 105 % of control under setting [2]; 111 % of control (endpoint: mean survival time, dose: 50.0 mg/kg/injection, schedule: Q04DX003 (ip), vehicle: Klucel (hydroxypropylcellulose) (HPC)); 92 % of control and 93 % of control (endpoint: mean survival time, dose: 100.0 mg/kg/injection, schedule: Q04DX003 (ip), vehicle: Klucel (hydroxypropylcellulose) (HPC)); 93 % of control (endpoint: mean survival time, dose: 200.0 mg/kg/injection, schedule: Q04DX003 (ip), vehicle: Klucel (hydroxypropylcellulose) (HPC)); 87 % of control (endpoint: mean survival time, dose: 400.0 mg/kg/injection, schedule: Q04DX003 (ip), vehicle: Klucel (hydroxypropylcellulose) (HPC)).
Regarding `CCc1cccc(CC)c1NC(=S)NN`, the T/C (endpoint: mean survival time, dose: 100.0 mg/kg/injection, schedule: Q04DX002 (ip), vehicle: saline with Tween-80) was 103 % of control.
As for `O=C(O)C12CC=CCC1(C(=O)O)CC=CC2` (stereo unspecified), the T/C (endpoint: mean survival time, dose: 50.0 mg/kg/injection, schedule: Q01DX001 (ip), vehicle: carboxymethylcellulose (CMC)) is 96 % of control; the T/C (endpoint: mean survival time, dose: 100.0 mg/kg/injection, schedule: Q01DX001 (ip), vehicle: carboxymethylcellulose (CMC)) is 98 % of control; the T/C (endpoint: mean survival time, dose: 200.0 mg/kg/injection, schedule: Q01DX001 (ip), vehicle: carboxymethylcellulose (CMC)) was 102 % of control; the T/C (endpoint: mean survival time, dose: 400.0 mg/kg/injection, schedule: Q01DX001 (ip), vehicle: carboxymethylcellulose (CMC)) was 98 % of control.
Turning to `O=C(COc1cccc(Cl)c1)NCc1ccc(NC(=O)CBr)cc1`, the T/C (endpoint: mean survival time, dose: 25.0 mg/kg/injection, schedule: Q01DX001 (ip), vehicle: gum acacia) is 94 % of control; the T/C (endpoint: mean survival time, dose: 50.0 mg/kg/injection, schedule: Q01DX001 (ip), vehicle: gum acacia) is 96 % of control; the T/C (endpoint: mean survival time, dose: 100.0 mg/kg/injection, schedule: Q01DX001 (ip), vehicle: gum acacia) was 98 % of control; the T/C (endpoint: mean survival time, dose: 200.0 mg/kg/injection, schedule: Q01DX001 (ip), vehicle: gum acacia) was 90 % of control; the T/C (endpoint: mean survival time, dose: 400.0 mg/kg/injection, schedule: Q01DX001 (ip), vehicle: gum acacia) is 90 % of control.
Consider `CC(C)(C)NC(=O)Nc1cccc(O)c1`, for which the T/C (endpoint: mean survival time, dose: 100.0 mg/kg/injection, schedule: Q01DX009 (ip), vehicle: Klucel (hydroxypropylcellulose) (HPC)) is 95 % of control; the T/C (endpoint: mean survival time, dose: 200.0 mg/kg/injection, schedule: Q01DX009 (ip), vehicle: Klucel (hydroxypropylcellulose) (HPC)) is 100 % of control; the T/C under setting [1] is 104 % of control.
